Test results published in ChEMBL document CHEMBL1149301, “Benzoyl ring halogenated classical 2-amino-6-methyl-3,4-dihydro-4-oxo-5-substituted thiobenzoyl-7H-pyrrolo[2,3-d]pyrimidine antifolates as inhibitors of thymidylate synthase and as antitumor agents” (J Med Chem, 2004).

Key:
CCRF-CEM [1] = assay: Protection against methotrexate-induced effect in human CCRF-CEM cells assessed as growth inhibition at 0.1 mM; type: functional; design: scale not given: the % may be the effect or the level left
CCRF-CEM [2] = assay: Protection against compound 4- or 5-induced effect in human CCRF-CEM cells assessed as growth inhibition at […]; design: scale not given: the % may be the effect or the level left
Thymidylate synthase [3] = target: Thymidylate synthase (Escherichia coli, UniProt C3SWJ7); assay: Inhibition of Escherichia coli thymidylate synthase
CCRF-CEM [4] = assay: Growth inhibition of human CCRF-CEM cells; type: functional, cell-based
R2 = assay: Growth inhibition of MTX-resistant human CCRF-CEM R2 cells; type: functional, cell-based
CCRF-CEM [5] = assay: Growth inhibition of MTX-resistant human CCRF-CEM R30dm cells; type: functional, cell-based
CCRF-CEM [6] = assay: Growth inhibition of human CCRF-CEM leukemia cells at 5000 nM relative to leucovorin; type: functional
[7] = Cytotoxicity against human CCRF-CEM leukemia cells; type: cell-based
[8] = Cytotoxicity against human EKVX cells; type: cell-based
[9] = Cytotoxicity against HCC2998 cells; type: cell-based, HCC 2998; details: human
SF-268 = assay: Cytotoxicity against SF268 cells; type: functional; details: Homo sapiens
[10] = Cytotoxicity against NCI/ADR-RES cells; type: cell-based; details: human
[11] = Cytotoxicity against BT549 cells; type: cell-based, BT-549; details: human
[12] = target: T1, Folylpolyglutamate synthase, mitochondrial (Homo sapiens) (UniProt Q05932); assay: Ratio of relative Vmax to Km of human recombinant FPGS
T1 sequence (whole entry): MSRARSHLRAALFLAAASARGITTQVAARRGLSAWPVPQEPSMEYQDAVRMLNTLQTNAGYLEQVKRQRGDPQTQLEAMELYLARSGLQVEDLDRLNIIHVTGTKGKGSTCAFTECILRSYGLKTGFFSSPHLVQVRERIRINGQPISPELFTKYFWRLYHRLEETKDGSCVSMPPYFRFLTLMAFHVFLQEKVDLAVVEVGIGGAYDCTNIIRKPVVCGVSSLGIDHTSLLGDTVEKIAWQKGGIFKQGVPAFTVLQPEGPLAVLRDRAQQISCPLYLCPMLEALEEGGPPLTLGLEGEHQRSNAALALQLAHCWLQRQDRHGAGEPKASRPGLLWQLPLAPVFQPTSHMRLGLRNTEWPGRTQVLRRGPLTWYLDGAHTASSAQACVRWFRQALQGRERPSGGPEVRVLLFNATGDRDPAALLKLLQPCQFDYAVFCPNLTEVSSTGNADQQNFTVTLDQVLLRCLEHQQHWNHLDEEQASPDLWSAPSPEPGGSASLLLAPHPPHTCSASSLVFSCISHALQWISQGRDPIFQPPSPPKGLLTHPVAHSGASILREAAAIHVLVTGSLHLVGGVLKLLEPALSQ

Thymidylate synthase [13] = target: Thymidylate synthase (Homo sapiens, UniProt P04818)
Description: Inhibition of human thymidylate synthase

Dihydrofolate reductase [14] = target: T2, Dihydrofolate reductase (Homo sapiens, UniProt P00374)
T2 sequence (P00374 whole entry): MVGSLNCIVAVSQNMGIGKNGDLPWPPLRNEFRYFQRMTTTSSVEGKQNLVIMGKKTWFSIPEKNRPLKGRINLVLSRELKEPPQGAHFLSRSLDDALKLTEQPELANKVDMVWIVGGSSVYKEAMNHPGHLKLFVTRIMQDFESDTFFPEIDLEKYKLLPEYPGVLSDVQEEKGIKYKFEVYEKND

Dihydrofolate reductase [15] = target: T3, Dihydrofolate reductase (Escherichia coli, UniProt P0ABQ4)
T3 sequence (P0ABQ4 whole entry): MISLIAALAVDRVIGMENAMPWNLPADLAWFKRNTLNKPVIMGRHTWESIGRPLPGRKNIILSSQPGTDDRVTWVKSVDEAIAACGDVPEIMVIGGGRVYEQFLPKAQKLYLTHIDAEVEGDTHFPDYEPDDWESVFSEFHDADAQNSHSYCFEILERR
Description: Inhibition of Escherichia coli DHFR

R1 = assay: Growth inhibition of MTX-resistant human CCRF-CEM R1 cells overexpressing DHFR
CCRF-CEM [16] = assay: Protection against 40 nM methotrexate-induced growth inhibition of human CCRF-CEM leukemia cells at 5 uM relative to control; type: functional; design: scale not given: the % may be the effect or the level left
CCRF-CEM [17] = assay: Protection against 5000 nM N-[4-[(2-amino-6-methyl-3,4-dihydro-4-oxo-7H-pyrrolo[2,3-d]pyrimidin-5-yl)thio]-2fluorobenzoyl]-L-glutamic acid-induced growth inhibition of human CCRF-CEM cells at 5 uM relative to control; type: functional; design: scale not given: the % may be the effect or the level left
CCRF-CEM [18] = assay: Protection against 2400 nM N-[4-[(2-amino-6-methyl-3,4-dihydro-4-oxo-7H-pyrrolo[2,3-d]pyrimidin-5-yl)thio]-2chlorobenzoyl]-L-glutamic acid-induced growth inhibition of human CCRF-CEM cells at 5 uM relative to control; type: functional; design: scale not given: the % may be the effect or the level left
CCRF-CEM [19] = assay: Growth inhibition of human CCRF-CEM cells by thymidine at 5 uM relative to control; design: scale not given: the % may be the effect or the level left
CCRF-CEM [20] = assay: Growth inhibition of human CCRF-CEM leukemia cells at 2400 nM relative to leucovorin; type: functional
[21] = substrate: Cc1[nH]c2nc(N)[nH]c(=O)c2c1Sc1ccc(C(=O)N[C@@H](CCC(=O)O)C(=O)O)c(Cl)c1; assay: (§1) Activity of human recombinant FPGS
[22] = substrate: Cc1[nH]c2nc(N)[nH]c(=O)c2c1Sc1ccc(C(=O)N[C@@H](CCC(=O)O)C(=O)O)c(F)c1; assay: as §1
[23] = substrate: Nc1nc(N)c2nc(CNc3ccc(C(=O)N[C@@H](CCC(=O)O)C(=O)O)cc3)cnc2n1; assay: as §1
[24] = substrate: Cc1[nH]c2nc(N)[nH]c(=O)c2c1Sc1ccc(C(=O)N[C@@H](CCC(=O)O)C(=O)O)c(Cl)c1; assay: (§2) Activity of human recombinant FPGS relative to AMT
[25] = substrate: Cc1[nH]c2nc(N)[nH]c(=O)c2c1Sc1ccc(C(=O)N[C@@H](CCC(=O)O)C(=O)O)c(F)c1; assay: as §2

Chain of Thymidylate synthase (Escherichia coli, UniProt C3SWJ7) (C3SWJ7 whole entry): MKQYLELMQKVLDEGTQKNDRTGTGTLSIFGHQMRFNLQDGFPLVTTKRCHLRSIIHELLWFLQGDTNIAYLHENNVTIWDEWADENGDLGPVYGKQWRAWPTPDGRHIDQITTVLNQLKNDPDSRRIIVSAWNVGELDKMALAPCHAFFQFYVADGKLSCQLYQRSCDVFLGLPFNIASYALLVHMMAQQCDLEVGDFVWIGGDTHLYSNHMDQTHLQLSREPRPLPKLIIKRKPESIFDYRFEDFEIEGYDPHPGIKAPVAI
Chain of Thymidylate synthase (Homo sapiens, UniProt P04818) (P04818 whole entry): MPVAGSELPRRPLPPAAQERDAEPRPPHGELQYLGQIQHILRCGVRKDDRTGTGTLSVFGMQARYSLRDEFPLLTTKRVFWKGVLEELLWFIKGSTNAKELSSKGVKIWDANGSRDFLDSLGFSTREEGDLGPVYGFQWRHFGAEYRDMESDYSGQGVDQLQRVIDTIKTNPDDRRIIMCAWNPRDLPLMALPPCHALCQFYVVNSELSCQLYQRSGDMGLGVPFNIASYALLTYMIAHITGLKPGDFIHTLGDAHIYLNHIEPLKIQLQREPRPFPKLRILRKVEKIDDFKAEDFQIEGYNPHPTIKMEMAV

Molecule `Nc1nc(=O)c2c([nH]1)NCC(CNc1ccc(C(=O)N[C@@H](CCC(=O)O)C(=O)O)cc1)N2C=O` (some centres not stated) [LEUCOVORIN] has an Activity (CCRF-CEM [1]) of 6% and an Activity (CCRF-CEM [2]) of 90%.

`Cc1[nH]c2nc(N)[nH]c(=O)c2c1Sc1ccc(C(=O)N[C@@H](CCC(=O)O)C(=O)O)c(F)c1` showed an IC50 (Thymidylate synthase [3]) of 0.72 µM, an EC50 (CCRF-CEM [4]) of 0.215 µM and an EC50 (R2) of 2.45 µM. It also gave an EC50 (CCRF-CEM [5]) of 0.305 µM, a relative growth at 5 µM (CCRF-CEM [6]) of 10 and a GI50 [7] of 0.712 µM. The GI50 [8] was 6.83 µM, the GI50 [9] was under 0.01 µM and the GI50 (SF-268) was 0.347 µM. The GI50 [10] was 0.383 µM, the GI50 [11] was 2.21 µM and the Ratio [12] was 0. The IC50 (Thymidylate synthase [13]) was 0.054 µM, the IC50 (Dihydrofolate reductase [14]) was 2.1 µM and the IC50 (Dihydrofolate reductase [15]) was 21 µM. The EC50 (R1) was 0.505 µM.

For `Nc1nc(N)c2nc(CNc3ccc(C(=O)N[C@@H](CCC(=O)O)C(=O)O)cc3)cnc2n1`, the Ratio [12] was 0.23.

Molecule `Cc1cn([C@H]2C[C@H](O)[C@@H](CO)O2)c(=O)[nH]c1=O` [DOXRIBTIMINE] has an Activity (CCRF-CEM [16]) of 10%, an Activity (CCRF-CEM [17]) of 96% and an Activity (CCRF-CEM [18]) of 92%. The Activity (CCRF-CEM [19]) was 40%.

Work on `Cc1[nH]c2nc(N)[nH]c(=O)c2c1Sc1ccc(C(=O)N[C@@H](CCC(=O)O)C(=O)O)c(Cl)c1` yielded an IC50 (Thymidylate synthase [3]) of 5.1 µM, an EC50 (CCRF-CEM [4]) of 0.69 µM and an EC50 (R2) of 12 µM. It also gave an EC50 (CCRF-CEM [5]) of 1.2 µM, an inhibition at 2.4 µM (CCRF-CEM [20]) of 11% and a GI50 [8] of 0.758 µM. For the same molecule, the GI50 [9] was 1.48 µM, the GI50 (SF-268) was 7.44 µM and the GI50 [10] was 8.54 µM. For the same molecule, the GI50 [11] was under 0.01 µM, the Ratio [12] was 0 and the IC50 (Thymidylate synthase [13]) was 0.051 µM. It also gave an IC50 (Dihydrofolate reductase [14]) of 11 µM, an IC50 (Dihydrofolate reductase [15]) of 40 µM and an EC50 (R1) of 1.9 µM.

With `Cc1[nH]c2nc(N)[nH]c(=O)c2c1Sc1ccc(C(=O)N[C@@H](CCC(=O)O)C(=O)O)cc1` the IC50 (Dihydrofolate reductase [14]) was 2.1 µM and the IC50 (Dihydrofolate reductase [15]) was 21 µM.

Work on `CN(Cc1cnc2nc(N)nc(N)c2n1)c1ccc(C(=O)N[C@@H](CCC(=O)O)C(=O)O)cc1` [METHOTREXATE] yielded an EC50 (R2) of 2.1 µM and an EC50 (R1) of 0.68 µM.

B1: Folylpolyglutamate synthase, mitochondrial (Homo sapiens), Q05932 (protein)
chain: MSRARSHLRAALFLAAASARGITTQVAARRGLSAWPVPQEPSMEYQDAVRMLNTLQTNAGYLEQVKRQRGDPQTQLEAMELYLARSGLQVEDLDRLNIIHVTGTKGKGSTCAFTECILRSYGLKTGFFSSPHLVQVRERIRINGQPISPELFTKYFWRLYHRLEETKDGSCVSMPPYFRFLTLMAFHVFLQEKVDLAVVEVGIGGAYDCTNIIRKPVVCGVSSLGIDHTSLLGDTVEKIAWQKGGIFKQGVPAFTVLQPEGPLAVLRDRAQQISCPLYLCPMLEALEEGGPPLTLGLEGEHQRSNAALALQLAHCWLQRQDRHGAGEPKASRPGLLWQLPLAPVFQPTSHMRLGLRNTEWPGRTQVLRRGPLTWYLDGAHTASSAQACVRWFRQALQGRERPSGGPEVRVLLFNATGDRDPAALLKLLQPCQFDYAVFCPNLTEVSSTGNADQQNFTVTLDQVLLRCLEHQQHWNHLDEEQASPDLWSAPSPEPGGSASLLLAPHPPHTCSASSLVFSCISHALQWISQGRDPIFQPPSPPKGLLTHPVAHSGASILREAAAIHVLVTGSLHLVGGVLKLLEPALSQ
For B1, the Km [21] was under 250 µM, the Km [22] was under 250 µM and the Vmax [23] was 1. The Vmax [24] was 0 and the Vmax [25] was 0.
